# Laboratory results reported in the Kinase Knowledgebase extract (Sharma et al. 2016).
# Biological target: EGFR (human) (UniProt P00533)
# Conditions: a431
# Sequence of EGFR (human) (P00533 whole entry, looked up): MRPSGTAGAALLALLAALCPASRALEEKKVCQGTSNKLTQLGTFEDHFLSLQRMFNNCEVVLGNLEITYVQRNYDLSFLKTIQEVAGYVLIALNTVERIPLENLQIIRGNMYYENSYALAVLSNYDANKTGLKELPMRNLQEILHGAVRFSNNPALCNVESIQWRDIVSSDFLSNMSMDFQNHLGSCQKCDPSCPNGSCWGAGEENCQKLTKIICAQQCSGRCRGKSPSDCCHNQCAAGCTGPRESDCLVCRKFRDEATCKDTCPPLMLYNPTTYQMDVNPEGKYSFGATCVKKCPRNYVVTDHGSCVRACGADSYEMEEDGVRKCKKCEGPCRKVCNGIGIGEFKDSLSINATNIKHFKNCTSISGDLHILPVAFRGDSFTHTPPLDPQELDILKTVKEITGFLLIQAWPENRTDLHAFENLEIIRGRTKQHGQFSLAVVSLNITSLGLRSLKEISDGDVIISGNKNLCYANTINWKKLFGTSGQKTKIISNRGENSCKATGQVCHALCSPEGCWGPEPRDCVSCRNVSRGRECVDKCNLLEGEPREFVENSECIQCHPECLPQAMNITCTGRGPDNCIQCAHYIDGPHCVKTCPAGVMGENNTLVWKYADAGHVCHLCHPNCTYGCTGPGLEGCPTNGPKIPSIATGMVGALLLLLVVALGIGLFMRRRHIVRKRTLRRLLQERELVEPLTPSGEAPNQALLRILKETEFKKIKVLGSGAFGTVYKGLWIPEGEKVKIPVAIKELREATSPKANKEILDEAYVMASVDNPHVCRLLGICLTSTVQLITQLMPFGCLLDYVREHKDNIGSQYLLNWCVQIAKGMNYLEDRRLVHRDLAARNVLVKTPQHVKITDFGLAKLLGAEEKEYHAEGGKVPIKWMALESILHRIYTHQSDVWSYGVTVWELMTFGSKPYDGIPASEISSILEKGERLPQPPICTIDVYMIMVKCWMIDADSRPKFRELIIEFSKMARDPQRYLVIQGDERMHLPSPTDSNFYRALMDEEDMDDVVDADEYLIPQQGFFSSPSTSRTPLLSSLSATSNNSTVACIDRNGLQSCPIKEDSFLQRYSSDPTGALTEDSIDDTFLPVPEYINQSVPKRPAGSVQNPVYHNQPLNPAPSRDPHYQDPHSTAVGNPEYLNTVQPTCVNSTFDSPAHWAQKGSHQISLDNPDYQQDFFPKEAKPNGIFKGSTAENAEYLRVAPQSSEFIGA
row,Structure (SMILES),IC50
1,CCOc1cc2ncc(C#N)c(Nc3ccc(Nc4nnc(C(F)(F)F)s4)c(Cl)c3)c2cc1[N+](=O)[O-],1.79 µg/mL
2,CCOc1cc2ncc(C#N)c(Nc3ccc(Nc4nnc(C(F)(F)F)s4)c(Cl)c3)c2cc1NC(=O)/C=C/CN(C)C,0.728 µg/mL
3,COc1cc2ncc(C#N)c(Nc3ccc(N(Cc4cccnc4)C(C)=O)c(Cl)c3)c2cc1[N+](=O)[O-],1.6 µg/mL
4,COc1cc2ncc(C#N)c(Nc3ccc(Sc4nc5ccccc5c(=O)[nH]4)c(Cl)c3)c2cc1[N+](=O)[O-],2.28 µg/mL
5,CCOc1cc2ncc(C#N)c(Nc3ccc(Sc4nc(-c5ccccc5)cs4)c(C(F)(F)F)c3)c2cc1NC(=O)/C=C/CN(C)C,0.3 µg/mL
6,COc1cc2ncc(C#N)c(Nc3ccc(N(Cc4cccnc4)C(C)=O)c(Cl)c3)c2cc1NC(C)=O,3.68 µg/mL

# Results, then the compound that gave them:
row,IC50,Structure (SMILES)
1,1.63 µg/mL,COc1cc2ncc(C#N)c(Nc3ccc(-n4ccnc4)c(Cl)c3)c2cc1N
2,> 5 µg/mL,COc1cc2c(Nc3ccc4cn[nH]c4c3)c(C#N)cnc2cc1OCCCN1CCOCC1
3,0.02 µg/mL,COc1cc2ncc(C#N)c(Nc3ccc(Sc4nccn4C)c(Cl)c3)c2cc1NC(=O)/C=C/CN(C)C
4,> 5 µg/mL,COc1cc2ncc(C#N)c(Nc3ccc(N(Cc4cccnc4)C(C)=O)c(Cl)c3)c2cc1N
